Test results taken from patent publication US20080119561A1, “METHODS FOR PREVENTING OR DELAYING CATHETER- BASED RESVASCULARIZATION” (Pfizer Inc, priority 1998, published 2008).

Assays:
[1] = tested on: subjects and patients; details: over 400 subjects and patients; cited from earlier work
[2] = tested on: hypercholesterolemic patients; details: 2.5 to 80 mg/day, 6 weeks; cited from earlier work
[3] = tested on: cholesterol-fed male New Zealand White rabbits; details: 8 weeks, compared to progression controls; cited from earlier work
[4] = tested on: patients with CAD and LDL-C≧130 mg/dL; details: atorvastatin 80 mg
Protocol: This is an 18-month, open-label, randomized, multicenter study in 341 patients with elevated LDL-C (≧130 mg/dL whether or not they are receiving lipid-lowering medication) who have had angiography. […] Patients must be Class I or II based on the Canadian Cardiovascular Society classification of angina severity, and must be able to complete 4 minutes of a Bruce protocol treadmill test, or a 20-W/min supine bicycle exercise test.
The study is conducted in patients with LDL-C≧130 mg/dL and TG≦400 mg/dL who have asymptomatic or mildly to moderately symptomatic CAD (with or without antianginal therapy) and in whom a recanalization procedure is recommended. “Usual care” represents a heterogeneous mix of therapies that may include calcium channel blocker use or lipid-lowering therapy (including diet, behavior modification or antihyperlipidemic medication). Patients who have undergone angiography, or are about to undergo angiography, will be considered for this study based on the results of the angiogram and other inclusion criteria. The study will be performed using a common protocol at all study sites. […]
All patients will be randomized to either Group 1 or Group 2 according to a randomization code. […] Usual care will be determined by the investigator or the patient's primary physician (or whoever typically decides the patient's follow-up care) as he or she sees fit. […]

CC(C)c1c(C(=O)Nc2ccccc2)c(-c2ccccc2)c(-c2ccc(F)cc2)n1CC[C@@H](O)C[C@@H](O)CC(=O)O [atorvastatin]
most frequently occurring adverse events [1]: headache, infection (mostly colds), constipation, and back pain | HDL-C, apolipoprotein AI (apo AI) or Lp (a) [2]: No significant changes | apolipoprotein B (apo B) [2]: significantly reduced | drug-related serious adverse events [2]: no drug-related serious adverse events | reduction of TG levels [2]: up to 32% | total cholesterol [2]: significantly reduced | percentage of discernible thoracic aortic lesions [3]: reduced | reduction of extracellular matrix and smooth muscle cell area [3]: 63% | reduction of size of iliac-femoral lesions [3]: approximately 68% | patients who encountered an adverse heart event ([4]; over 18 months, angioplasty group 21%): 13% | LDL cholesterol on treatment, average ([4]; from 140 mg/dL before treatment): 77 mg/dL
